The values below come from patent publication US20120015032A1, “COMBINATION PREPARATION COMPRISING INHIBITOR OF HMG-COA REDUCTASE AND ASPIRIN AND METHOD FOR MANUFACTURING THE SAME” (HANALL PHARMACEUTICAL COMPANY, LTD., priority 2007, published 2012).

Each structure is given as a SMILES string.

Assay type in all cases: in vivo, rat
For one series, the system named is SD rats. In words: Test of antiplatelet aggregation effect (bleeding time) in rats. The protocol:
(§1) Animal tests supporting the effects of the present invention were carried out as described in Table 10 below. [table]

The test system of another series is rats. Description: Test of comparison of gastric mucosal injury in rats (index of gastric mucosal bleeding). As to conditions: Table 16.
A further series concerns SHR rats. In words: Test of antihypertensive effect in rats. The following applies: light, p.o. The protocol:
as §1

The mark [1] stands for this setting: Day 0, simvastatin 5 mg/kg alone.
Setting [2] is: Day 5, simvastatin 5 mg/kg alone.

As to `CC(=O)Oc1ccccc1C(=O)O` [aspirin], the “platelet aggregation inhibitory effect” value in the series with SD rats (rats, bleeding time, summary of Table 12) is given as “increased in proportion to the dose of aspirin”. Also, in the series with rats, the “occurrence of gastrointestinal disturbance” value is on record as “increased in proportion to an increase in the dose of aspirin”.
With `CCC(C)(C)C(=O)O[C@H]1C[C@@H](C)C=C2C=C[C@H](C)[C@H](CC[C@@H]3C[C@@H](O)CC(=O)O3)[C@H]21` [simvastatin], in the series on SHR rats (setting [1]), the “Diastolic blood pressure (DBP)” value worked out at 124.3 ± 15.5, the “Mean blood pressure (MBP)” value turned out to be 139.0 ± 12.4 and the “Systolic blood pressure (SBP)” value turned out to be 171.0 ± 8.7. Also, in the series with SHR rats (setting [2]), the “Diastolic blood pressure (DBP)” value was determined as 125.1 ± 17.1, the “Mean blood pressure (MBP)” value is on record as 131.3 ± 12.6 and the “Systolic blood pressure (SBP)” value came out at 173.9 ± 9.2. For the same compound, in the series on SD rats (SD rats, simvastatin alone, light conditions, p.o., 2 hrs after administration), the Bleeding time came out at 782 ± 429 s.
